# Results published in paper PMC12066474, “Ex vivo quantification of intracellular pH in Drosophila Malpighian tubule reveals basolateral HCO3 ^−/oxalate exchange through a novel oxalate transporter “Neat”” (Frontiers in Physiology, 2025).
# Target: T1, Neat (CG5002) (Drosophila melanogaster, UniProt Q7K4I4)
# T1 construct: coding region in pGEMHE, cRNA expressed in Xenopus laevis oocytes
# T1 sequence (Q7K4I4 1-595): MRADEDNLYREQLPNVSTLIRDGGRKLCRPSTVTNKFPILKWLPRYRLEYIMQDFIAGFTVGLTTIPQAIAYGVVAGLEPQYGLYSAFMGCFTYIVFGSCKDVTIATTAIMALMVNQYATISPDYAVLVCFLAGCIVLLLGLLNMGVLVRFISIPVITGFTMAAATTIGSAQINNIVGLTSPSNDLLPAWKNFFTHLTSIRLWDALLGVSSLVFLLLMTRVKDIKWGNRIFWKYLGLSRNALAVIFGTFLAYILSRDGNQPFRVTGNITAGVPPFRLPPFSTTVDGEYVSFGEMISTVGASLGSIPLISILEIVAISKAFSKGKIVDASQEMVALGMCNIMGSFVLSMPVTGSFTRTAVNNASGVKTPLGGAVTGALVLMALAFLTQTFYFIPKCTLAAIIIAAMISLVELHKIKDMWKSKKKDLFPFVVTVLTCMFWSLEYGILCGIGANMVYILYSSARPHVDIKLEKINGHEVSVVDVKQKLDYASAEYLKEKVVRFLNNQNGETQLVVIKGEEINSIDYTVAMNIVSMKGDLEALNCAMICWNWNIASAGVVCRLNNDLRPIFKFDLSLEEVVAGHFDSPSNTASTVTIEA
# Assay type: cell-based
# Settings: 5% CO2/33 mM HCO3−, pH 7.5
smiles,measurement,value
O=C(O)O [HCO3 ^−],intracellular pH microelectrode in Xenopus oocytes,Neat demonstrated electroneutral HCO3 ^− influx in the presence of HCO3 ^−/CO2 buffered saline
